Values of other authors in paper PMC2231820 (The Journal of General Physiology, 2000).

Biological target: T1, rat olfactory (Rolf) CNG channel, α homomultimer (Rattus norvegicus, UniProt Q00195)
T1 sequence (Q00195 1-664): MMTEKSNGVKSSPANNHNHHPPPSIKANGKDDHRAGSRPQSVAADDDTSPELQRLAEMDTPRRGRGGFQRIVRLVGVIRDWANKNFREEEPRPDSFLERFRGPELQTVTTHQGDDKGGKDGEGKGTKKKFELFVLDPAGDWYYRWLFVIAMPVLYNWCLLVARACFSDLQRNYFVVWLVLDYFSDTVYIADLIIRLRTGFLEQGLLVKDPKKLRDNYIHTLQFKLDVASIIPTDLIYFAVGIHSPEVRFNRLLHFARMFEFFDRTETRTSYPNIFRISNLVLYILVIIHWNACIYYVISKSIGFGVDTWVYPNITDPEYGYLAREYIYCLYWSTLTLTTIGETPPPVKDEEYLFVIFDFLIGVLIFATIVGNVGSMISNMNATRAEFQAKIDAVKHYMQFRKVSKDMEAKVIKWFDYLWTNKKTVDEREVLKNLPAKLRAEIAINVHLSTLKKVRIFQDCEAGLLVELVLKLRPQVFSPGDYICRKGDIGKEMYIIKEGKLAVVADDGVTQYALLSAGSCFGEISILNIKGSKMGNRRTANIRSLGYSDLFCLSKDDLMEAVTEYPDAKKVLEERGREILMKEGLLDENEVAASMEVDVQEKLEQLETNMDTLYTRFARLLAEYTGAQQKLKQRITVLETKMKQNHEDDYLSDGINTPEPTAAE
Details: saturating 100 μM cGMP, ref Crary et al. 2000; cited from earlier work

diacylglycerol [DAG]
DAG maximal percent inhibition (INmax): 31%
